In US20080200454A1, “CARBON-LINKED TETRAHYDRO-PYRAZOLO-PYRIDINE MODULATORS OF CATHEPSIN S” (priority 2007, published 2008) one finds IC50 data, which are given here for 23 molecules.

One may read the IC50 as the concentration at which inhibition is half-maximal.

The target of the first assay is Recombinant human cathepsin S (CatS) (Homo sapiens, UniProt P25774). Description: Recombinant human cathepsin S (CatS) inhibition assay, fluorogenic substrate Z-Valine-Valine-Arginine-AMC.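 Further: Baculovirus-expressed CatS in pH 5.0 sodium acetate buffer with DTT and NaCl, fluorescence read each minute over 20 min, inhibition derived from rate slope.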
Sequence of Recombinant human cathepsin S (CatS) (P25774 115-331): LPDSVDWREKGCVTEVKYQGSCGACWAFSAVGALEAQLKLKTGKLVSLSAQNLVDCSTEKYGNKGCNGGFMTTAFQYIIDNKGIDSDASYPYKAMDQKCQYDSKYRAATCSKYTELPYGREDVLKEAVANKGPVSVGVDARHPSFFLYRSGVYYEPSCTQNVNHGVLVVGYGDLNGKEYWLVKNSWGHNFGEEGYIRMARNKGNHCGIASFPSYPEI
Details: not given
Consider `CS(=O)(=O)N1CCc2c(c(-c3ccc(Cl)c(C#Cc4ccc5c(c4)CNCC5)c3)nn2CCCN2CCOCC2)C1` [Example 360, 7-({2-Chloro-5-[5-(methylsulfonyl)-1-(3-morpholin-4-ylpropyl)-4,5,6,7-tetrahydro-1H-pyrazolo[4,3-c]pyridin-3-yl]phenyl}ethynyl)-1,2,3,4-tetrahydroisoquinoline], for which the IC50 amounted to 170 nM. For the molecule `C[C@H]1COCCN1CCCn1nc(-c2ccc(Cl)c(C#Cc3ccc(CNCc4ccc(Cl)cc4)cc3)c2)c2c1CCN(C(=O)C(N)=O)C2` [Example 158, 2-[3-(4-Chloro-3-{[4-({[(4-chlorophenyl)methyl]amino}methyl)phenyl]ethynyl}phenyl)-1-{3-[(3S)-3-methylmorpholin-4-yl]propyl}-1,4,6,7-tetrahydro-5H-pyrazolo[4,3-c]pyridin-5-yl]-2-oxoacetamide], the IC50 came out at 50 nM. On to `COC(=O)c1ccccc1S(=O)(=O)NCCCc1cc(-c2nn(CCCN3CCC(N4CCCC4=O)CC3)c3c2CN(S(C)(=O)=O)CC3)ccc1Cl` [Example 309, Methyl 2-{[(3-{2-chloro-5-[5-(methylsulfonyl)-1-{3-[4-(2-oxopyrrolidin-1-yl)piperidin-1-yl]propyl}-4,5,6,7-tetrahydro-1H-pyrazolo[4,3-c]pyridin-3-yl]phenyl}propyl)amino]sulfonyl}benzoate], for which the IC50 amounted to 320 nM. Take `CS(=O)(=O)N1CCc2c(c(-c3ccc(Cl)c(C#Cc4ccc(CNS(=O)(=O)c5ccccc5)cc4)c3)nn2CCCN2CCOCC2)C1` [Example 71, N-(4-{2-Chloro-5-[5-methanesulfonyl-1-(3-morpholin-4-yl-propyl)-4,5,6,7-tetrahydro-1H-pyrazolo[4,3-c]pyridin-3-yl]-phenylethynyl}-benzyl)-benzenesulfonamide]: the 50% inhibitory concentration (IC50) worked out at 170 nM. Consider `CS(=O)(=O)N1CCc2c(c(-c3ccc(Cl)c(C#Cc4ccc(CNC5CCCc6ccccc65)cc4)c3)nn2CCCN2CCN(c3ccccn3)CC2)C1` (stereo in doubt) [Example 215, (1R)—N-({4-[(2-Chloro-5-{5-(methylsulfonyl)-1-[3-(4-pyridin-2-ylpiperazin-1-yl)propyl]-4,5,6,7-tetrahydro-1H-pyrazolo[4,3-c]pyridin-3-yl}phenyl)ethynyl]phenyl}methyl)-1,2,3,4-tetrahydronaphthalen-1-amine], for which the IC50 turned out to be 30 nM.

As to `CS(=O)(=O)N1CCc2c(c(-c3ccc(Cl)c(CCc4ccc(Cl)cc4)c3)nn2C[C@@H](O)CN2CCC(C3CCNCC3)CC2)C1` [Example 246, (2S)-1-(4,4′-Bipiperidin-1-yl)-3-[3-{4-chloro-3-[2-(4-chlorophenyl)ethyl]phenyl}-5-(methylsulfonyl)-4,5,6,7-tetrahydro-1H-pyrazolo[4,3-c]pyridin-1-yl]propan-2-ol], the IC50 turned out to be 10 nM. Consider `NC(=O)N1CCc2c(c(-c3ccc(Cl)c(C#Cc4ccc(C(=O)NCc5ccc(Cl)cc5)cc4)c3)nn2CCCN2CCSCC2)C1` [Example 547, 3-(4-Chloro-3-{[4-({[(4-chlorophenyl)methyl]amino}carbonyl)phenyl]ethynyl}phenyl)-1-(3-thiomorpholin-4-ylpropyl)-1,4,6,7-tetrahydro-5H-pyrazolo[4,3-c]pyridine-5-carboxamide], for which the IC50 came out at 120 nM. For the molecule `CS(=O)(=O)N1CCc2c(c(-c3ccc(Cl)c(CCCNS(=O)(=O)Cc4ccccc4)c3)nn2CCCN2CCOCC2)C1` [Example 81, N-(3-{2-Chloro-5-[5-methanesulfonyl-1-(3-morpholin-4-yl-propyl)-4,5,6,7-tetrahydro-1H-pyrazolo[4,3-c]pyridin-3-yl]-phenyl}-propyl)-C-phenyl-methanesulfonamide], the IC50 is 5470 nM.

Regarding `CCNCc1cc(C#Cc2cc(-c3nn(CCCN4CCCCC4)c4c3CN(S(C)(=O)=O)CC4)ccc2Cl)ccc1Cl` [Example 594, N-[2-Chloro-5-({2-chloro-5-[5-(methylsulfonyl)-1-(3-piperidin-1-ylpropyl)-4,5,6,7-tetrahydro-1H-pyrazolo[4,3-c]pyridin-3-yl]phenyl}ethynyl)benzyl]ethanamine], the IC50 is 30 nM. As for `CS(=O)(=O)N1CCc2c(c(-c3ccc(Cl)c(C#Cc4ccc(CN)cc4)c3)nn2CCCN2CCOCC2)C1` [Example 69, 4-{2-Chloro-5-[5-methanesulfonyl-1-(3-morpholin-4-yl-propyl)-4,5,6,7-tetrahydro-1H-pyrazolo[4,3-c]pyridin-3-yl]-phenylethynyl}-benzylamine], the half-maximal inhibitory concentration (IC50) came to 530 nM. Take `CS(=O)(=O)N1CCc2c(c(-c3ccc(Cl)c(C#Cc4ccc(CNCc5ccc(Cl)cc5)cc4)c3)nn2C[C@H](O)CN2CCOCC2)C1` [Example 264, (R)-1-[3-(4-Chloro-3-{4-[(4-chloro-benzylamino)-methyl]-phenylethynyl}-phenyl)-5-methanesulfonyl-4,5,6,7-tetrahydro-pyrazolo[4,3-c]pyridin-1-yl]-3-morpholin-4-yl-propan-2-ol]: the concentration for half-maximal inhibition (IC50) was 370 nM. For `CS(=O)(=O)N1CCc2c(c(-c3ccc(Cl)c(CCCN)c3)nn2CCCN2CCC(N3CCCC3=O)CC2)C1` [Example 308, 1-[1-(3-{3-[3-(3-Aminopropyl)-4-chlorophenyl]-5-(methylsulfonyl)-4,5,6,7-tetrahydro-1H-pyrazolo[4,3-c]pyridin-1-yl}propyl)piperidin-4-yl]pyrrolidin-2-one], the 50% inhibitory concentration (IC50) stood at 5650 nM. `NC(=O)N1CCc2c(c(-c3ccc(Cl)c(C#Cc4ccc(CNCc5ccc(Cl)cc5)cc4)c3)nn2CCCN2CCC(C(F)(F)F)CC2)C1` [Example 455, 3-(4-Chloro-3-{[4-({[(4-chlorophenyl)methyl]amino}methyl)phenyl]ethynyl}phenyl)-1-{3-[4-(trifluoromethyl)piperidin-1-yl]propyl}-1,4,6,7-tetrahydro-5H-pyrazolo[4,3-c]pyridine-5-carboxamide]: the 50% inhibitory concentration (IC50) stood at 40 nM.

The assay is the same for the next values; noted with them: CatS IC50.
Take `CS(=O)(=O)N1CCc2c(c(-c3ccc(Cl)c(C#Cc4cccc(CNc5ccccc5)c4)c3)nn2CCCN2CCOCC2)C1` [Example 511, N-{[3-({2-Chloro-5-[5-(methylsulfonyl)-1-(3-morpholin-4-ylpropyl)-4,5,6,7-tetrahydro-1H-pyrazolo[4,3-c]pyridin-3-yl]phenyl}ethynyl)phenyl]methyl}aniline]: the IC50 was 1610 nM. On the same count and under the same terms, the value for `COC(=O)CNCc1ccc(C#Cc2cc(-c3nn(CCCN4CCOCC4)c4c3CN(S(C)(=O)=O)CC4)ccc2Cl)cc1` [Example 347, Methyl N-{[4-({2-chloro-5-[5-(methylsulfonyl)-1-(3-morpholin-4-ylpropyl)-4,5,6,7-tetrahydro-1H-pyrazolo[4,3-c]pyridin-3-yl]phenyl}ethynyl)phenyl]methyl}glycinate] was 610 nM; that for `CS(=O)(=O)N1CCc2c(c(-c3ccc(Cl)c(CCc4cccc(CNCC5CCOCC5)c4)c3)nn2CCCN2CCOCC2)C1` [Example 186, 1-[3-(2-{2-Chloro-5-[5-(methylsulfonyl)-1-(3-morpholin-4-ylpropyl)-4,5,6,7-tetrahydro-1H-pyrazolo[4,3-c]pyridin-3-yl]phenyl}ethyl)phenyl]-N-(tetrahydro-2H-pyran-4-ylmethyl)methanamine] was 690 nM. For the molecule `CS(=O)(=O)N1CCc2c(c(-c3ccc(Cl)c(C#Cc4ccc5c(c4)CN(C4CC4)CC5)c3)nn2CCCN2CCN(C3CC3)CC2)C1` [Example 276, 7-[(2-Chloro-5-{1-[3-(4-cyclopropylpiperazin-1-yl)propyl]-5-(methylsulfonyl)-4,5,6,7-tetrahydro-1H-pyrazolo[4,3-c]pyridin-3-yl}phenyl)ethynyl]-2-cyclopropyl-1,2,3,4-tetrahydroisoquinoline], the IC50 came out at 180 nM. For the molecule `O=C(CO)N1CCc2c(c(-c3ccc(Cl)c(C#Cc4ccc(CNCc5ccc(Cl)cc5)cc4)c3)nn2CCCN2CCN(c3ccccc3)CC2)C1` [Example 172, 2-{3-(4-Chloro-3-{[4-({[(4-chlorophenyl)methyl]amino}methyl)phenyl]ethynyl}phenyl)-1-[3-(4-phenylpiperazin-1-yl)propyl]-1,4,6,7-tetrahydro-5H-pyrazolo[4,3-c]pyridin-5-yl}-2-oxoethanol], the IC50 came out at 30 nM. With `CC(C)CNCc1ccc(C#Cc2cc(-c3nn(CCCN4CCOCC4)c4c3CN(S(C)(=O)=O)CC4)ccc2Cl)cc1` [Example 318, N-{[4-({2-Chloro-5-[5-(methylsulfonyl)-1-(3-morpholin-4-ylpropyl)-4,5,6,7-tetrahydro-1H-pyrazolo[4,3-c]pyridin-3-yl]phenyl}ethynyl)phenyl]methyl}-2-methylpropan-1-amine], the IC50 came to 1150 nM. As for `C[C@H]1COCCN1C[C@H](O)Cn1nc(-c2ccc(Cl)c(C#Cc3ccc(CNCc4ccc(Cl)cc4)cc3)c2)c2c1CCN(C(=O)C(N)=O)C2` [Example 255, 2-{3-(4-Chloro-3-{4-[(4-chloro-benzylamino)-methyl]-phenylethynyl}-phenyl)-1-[(2S)-2-hydroxy-3-((3S)-3-methyl-morpholin-4-yl)-propyl]-1,4,6,7-tetrahydro-pyrazolo[4,3-c]pyridin-5-yl}-2-oxo-acetamide], the IC50 worked out at 70 nM. On the same count and under the same terms, the result for `CS(=O)(=O)N1CCc2c(c(-c3ccc(Cl)c(C#Cc4ccc(CNCc5ccc(Cl)cc5)cc4)c3)nn2CCCN2CCNCC2)C1` [Example 368, 1-[4-({2-Chloro-5-[5-(methylsulfonyl)-1-(3-piperazin-1-ylpropyl)-4,5,6,7-tetrahydro-1H-pyrazolo[4,3-c]pyridin-3-yl]phenyl}ethynyl)phenyl]-N-[(4-chlorophenyl)methyl]methanamine] reads 330 nM.

As to `CS(=O)(=O)N1CCc2c(c(-c3ccc(Cl)c(C#Cc4ccc(CNCc5ccc(Cl)cc5)cc4)c3)nn2CCCN2CCN(c3ccccc3O)CC2)C1` [Example 407, 2-(4-{3-[3-(4-Chloro-3-{[4-({[(4-chlorophenyl)methyl]amino}methyl)phenyl]ethynyl}phenyl)-5-(methylsulfonyl)-4,5,6,7-tetrahydro-1H-pyrazolo[4,3-c]pyridin-1-yl]propyl}piperazin-1-yl)phenol], the IC50 worked out at 20 nM. Regarding `CS(=O)(=O)N1CCc2c(c(-c3ccc(Cl)c(C#Cc4ccc(CNCC(F)(F)F)cc4)c3)nn2CCCN2CCOCC2)C1` [Example 340, N-{[4-({2-Chloro-5-[5-(methylsulfonyl)-1-(3-morpholin-4-ylpropyl)-4,5,6,7-tetrahydro-1H-pyrazolo[4,3-c]pyridin-3-yl]phenyl}ethynyl)phenyl]methyl}-2,2,2-trifluoroethanamine], the IC50 turned out to be 390 nM.
